# Assay results from patent publication US20250326771A1, “PIPERAZINE DERIVATIVES USEFUL IN HIV THERAPY” (VIIV HEALTHCARE COMPANY, priority 2022, published 2025).
# Legend:
# [1] = test system: Jurkat HIV-luciferase clones; conditions: HIV latency reversal studies; cited from earlier work
# p100/p52 = conditions: cited from earlier work
# cell-associated HIV RNA = conditions: primary cells / resting CD4+ T cells; cited from earlier work
# [2] = test system: Jurkat HIV-luciferase clones; assay: Jurkat latency reversal assay; format: cell-based; conditions: Homo sapiens, 48 h; Jurkat latency reversal assay potency; read-out: Jurkat pEC50 (converted)
# How it was run: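 Luminescence read-out: Steady-Glo after 48 h, 37° C, on mixed Jurkat HIV-luc clones (C16, 115, N6; 5,000 cells/well total). Cpd 14-pt 3-fold dilutions, duplicate, top 10 μM, 0.5% DMSO. EC50 + max % activation vs vehicle via 4-parameter fit.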
# cIAP1-BIR3 = cIAP1-BIR3 (Homo sapiens (Human), UniProt Q13490); assay: BIR binding assay (FRET competition), cIAP1 BIR3; conditions: for cIAP1 BIR3 vs BIR2 separation window: fold separation (FS) for cIAP1
# How it was run: (§1)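 His-tagged domains (50 nM cIAP1-BIR3, 325 nM cIAP2-BIR2, 325 nM cIAP1-BIR2, 100 nM XIAP-BIR3) compete with compounds for a 200 nM AlexaFluor647-labelled SMAC/DIABLO peptide in HEPES buffer, pH 7.4, for 60 min. Then 2 nM Eu-W1024 is added for 30 min. The 615/665 nm ratio is fit by four-parameter fit to give IC50.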
# cIAP1-BIR2 = cIAP1-BIR2 (Homo sapiens (Human), UniProt Q13490); assay: BIR binding assay (FRET competition), cIAP1 BIR2
# How it was run: as §1
# cIAP2-BIR3 = cIAP2-BIR3 (Homo sapiens (Human), UniProt Q13489); assay: BIR binding assay (FRET competition), cIAP2 BIR3; conditions: for cIAP2 BIR3 vs BIR2 separation window: fold separation (FS) for cIAP2
# cIAP2-BIR2 = cIAP2-BIR2 (Homo sapiens (Human), UniProt Q13489); assay: BIR binding assay (FRET competition), cIAP2 BIR2
# How it was run: as §1
# XIAP-BIR3 = XIAP-BIR3 (Homo sapiens (Human), UniProt P98170); assay: BIR binding assay (FRET competition), XIAP BIR3; conditions: for XIAP BIR3 vs BIR2 separation window: fold separation (FS) for XIAP
# How it was run: as §1
# XIAP-BIR2 = XIAP-BIR2 (Homo sapiens (Human), UniProt P98170); assay: BIR binding assay (FRET competition), XIAP BIR2; conditions: FRET competition binding; for IC50: read-out: XIAP BIR2 (pIC50) (converted)
# How it was run: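 Compounds in a 15-point, 3-fold series competed with an AlexaFluor647 SMAC peptide (AVPIAQKSE, 200 nM) for 200 nM His-tagged XIAP-BIR2 over 60 min in pH 7.4 HEPES/CHAPS/DTT buffer. Eu-W1024 (2 nM) was then added for 30 min. IC50 and pIC50 were derived from the 615 nm/665 nm emission ratio by variable-slope fit.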
# Chain of cIAP2-BIR2 (Q13489 158-242): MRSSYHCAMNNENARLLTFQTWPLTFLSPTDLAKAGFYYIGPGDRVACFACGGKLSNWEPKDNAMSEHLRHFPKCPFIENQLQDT
# Chain of XIAP-BIR2 (P98170 124-240): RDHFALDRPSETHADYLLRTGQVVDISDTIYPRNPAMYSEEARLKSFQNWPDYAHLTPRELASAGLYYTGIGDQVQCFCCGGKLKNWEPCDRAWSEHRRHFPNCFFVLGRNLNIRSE
# Chain of XIAP-BIR3 (P98170 241-356): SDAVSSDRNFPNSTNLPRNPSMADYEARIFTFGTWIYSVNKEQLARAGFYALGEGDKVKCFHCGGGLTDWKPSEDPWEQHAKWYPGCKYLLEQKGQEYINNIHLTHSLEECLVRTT
# Chain of cIAP2-BIR3 (Q13489 238-349): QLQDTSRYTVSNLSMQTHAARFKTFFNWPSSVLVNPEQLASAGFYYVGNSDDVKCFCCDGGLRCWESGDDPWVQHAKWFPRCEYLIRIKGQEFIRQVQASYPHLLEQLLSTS
# Chain of cIAP1-BIR2 (Q13490 173-257): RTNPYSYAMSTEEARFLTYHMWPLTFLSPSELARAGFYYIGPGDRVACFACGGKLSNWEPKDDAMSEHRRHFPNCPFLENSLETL
# Chain of cIAP1-BIR3 (Q13490 253-363): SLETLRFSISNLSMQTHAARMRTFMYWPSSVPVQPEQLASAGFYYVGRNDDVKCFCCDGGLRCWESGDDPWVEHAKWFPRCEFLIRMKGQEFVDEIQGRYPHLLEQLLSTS
Structure (SMILES),potency in Jurkat [1],p100-p52 conversion (p100/p52),HIV caRNA induction (cell-associated HIV RNA),EC50 [2] [nM],IC50 (cIAP1-BIR3) [nM],cIAP1 BIR3 vs BIR2 separation window (cIAP1-BIR3),IC50 (cIAP1-BIR2) [nM],IC50 (cIAP2-BIR3) [nM],cIAP2 BIR3 vs BIR2 separation window (cIAP2-BIR3),IC50 (cIAP2-BIR2) [nM],IC50 (XIAP-BIR3) [nM],XIAP BIR3 vs BIR2 separation window (XIAP-BIR3),IC50 (XIAP-BIR2) [nM],XIAP BIR2 (pIC50) (XIAP-BIR2)
"CC[C@H](NC(=O)[C@H](C)NC)C(=O)N1C[C@@H](O)C[C@H]1Cc1c(-c2[nH]c3cc(F)ccc3c2C[C@@H]2C[C@H](O)CN2C(=O)[C@H](CC)NC(=O)[C@H](C)NC)[nH]c2cc(F)ccc12 [Birinapant TL32711, Birinapant]",not potent,not potent,not potent,,,,,,,,,,,
CN[C@@H](C)C(=O)N[C@H](C(=O)N1CCC[C@H]1C(=O)N[C@H]1c2ccccc2C[C@H]1OCC#CC#CCO[C@@H]1Cc2ccccc2[C@@H]1NC(=O)[C@@H]1CCCN1C(=O)[C@@H](NC(=O)[C@H](C)NC)C1CCCCC1)C1CCCCC1 [AZD5582],,,increase in cell-associated HIV RNA expression,,,,,,,,,,,
"C[C@@H]1CN(CC(=O)N2CC(C)(C)c3[nH]c(=O)c(Cc4ccc(F)cc4)cc32)[C@@H](CN2CCC(CNC(=O)Cc3ccc(CC(=O)NCC4CCN(C[C@H]5CN[C@H](C)CN5CC(=O)N5CC(C)(C)c6[nH]c(=O)c(Cc7ccc(F)cc7)cc65)CC4)cc3)CC2)CN1 [Example 102, 2,2′-(1,4-phenylene)bis(N-((1-(((2R,5R)-1-(2-(6-(4-fluorobenzyl)-3,3-dimethyl-5-oxo-2,3,4,5-tetrahydro-1H-pyrrolo[3,2-b]pyridin-1-yl)-2-oxoethyl)-5-methylpiperazin-2-yl)methyl)piperidin-4-yl)methyl)acetamide)]",,,,63.1 to 316,7.94 to 15.8,"+++ (10,000>FS>1,000)",3160 to 10000,7.94 to 15.8,"++++ (FS>10,000)",3160 to 10000,7.94 to 15.8,"++++ (FS>10,000)",10000 to 51300,
"C[C@@H]1CN(CC(=O)N2CC(C)(C)c3[nH]c(=O)c(Cc4ccc(F)cc4)cc32)[C@@H](CN2CCO[C@H](COc3ccccc3OC[C@@H]3CN(C[C@H]4CN[C@H](C)CN4CC(=O)N4CC(C)(C)c5[nH]c(=O)c(Cc6ccc(F)cc6)cc54)CCO3)C2)CN1 [Example 71, 1,1′-(2,2′-((3R,3′R,6R,6′R)-(((2S,2'S)-((1,2-phenylenebis(oxy))bis(methylene))bis(morpholine-2,4-diyl))bis(methylene))bis(3-methylpiperazine-6,1-diyl))bis(acetyl))bis(6-(4-fluorobenzyl)-3,3-dimethyl-1,2,3,4-tetrahydro-5H-pyrrolo[3,2-b]pyridin-5-one)]",,,,63.1 to 316,7.94 to 15.8,"++ (1,000>FS>100)",1000 to 3160,7.94 to 15.8,"+++ (10,000>FS>1,000)",1000 to 3160,15.8 to 31.6,"++++ (FS>10,000)",10000 to 51300,
"C[C@@H]1CN(CC(=O)N2CC(C)(C)c3[nH]c(=O)c(Cc4ccc(F)cc4)cc32)[C@@H](CN2CCO[C@H](COCc3cccc(COC[C@@H]4CN(C[C@H]5CN[C@H](C)CN5CC(=O)N5CC(C)(C)c6[nH]c(=O)c(Cc7ccc(F)cc7)cc65)CCO4)c3)C2)CN1 [Example 80, 1,1′-(2,2′-((3R,3′R,6R,6′R)-(((2S,2'S)-(((1,3-phenylenebis(methylene))bis(oxy))bis(methylene))bis(morpholine-2,4-diyl))bis(methylene))bis(3-methylpiperazine-6,1-diyl))bis(acetyl))bis(6-(4-fluorobenzyl)-3,3-dimethyl-1,2,3,4-tetrahydro-5H-pyrrolo[3,2-b]pyridin-5-one)]",,,,0.49 to 12.6,1.38 to 7.94,"+++ (10,000>FS>1,000)",1000 to 3160,1.38 to 7.94,"+++ (10,000>FS>1,000)",3160 to 10000,1.38 to 7.94,"++++ (FS>10,000)",10000 to 51300,
"C[C@@H]1CN(CC(=O)N2CC(C)(C)c3[nH]c(=O)c(Cc4ccc(F)cc4)cc32)[C@@H](CN2CCN(C(=O)c3ccc(C(=O)N4CCN(C[C@H]5CN[C@H](C)CN5CC(=O)N5CC(C)(C)c6[nH]c(=O)c(Cc7ccc(F)cc7)cc65)[C@H](C)C4)cc3)C[C@H]2C)CN1 [Example 19, 1,1′-(2,2′-((3R,3′R,6R,6′R)-(((2R,2′R)-terephthaloylbis(2-methylpiperazine-4,1-diyl))bis(methylene))bis(3-methylpiperazine-6,1-diyl))bis(acetyl))bis(6-(4-fluorobenzyl)-3,3-dimethyl-1,2,3,4-tetrahydro-5H-pyrrolo[3,2-b]pyridin-5-one)]",,,,63.1 to 316,1.38 to 7.94,"+++ (10,000>FS>1,000)",22.4 to 1000,1.38 to 7.94,"+++ (10,000>FS>1,000)",22.4 to 1000,1.38 to 7.94,"++++ (FS>10,000)",,+ (4.29<pIC50<=5.00)
